Measured values reported in US20230338360A1, “Method of Inhibiting Constitutively Active Phosphorylated FLT3 Kinase” (Arog Pharmaceuticals, Inc., priority 2012, published 2023).
Read-outs that look alike come from different tables or passages of the source. Each block holds one compound with its values, some of them ahead of it.

Key:
VEGFR-2 = VEGFR-2 (Homo sapiens, UniProt P35968); assay: Inhibition of other RTKs (IC50); assay type: biochemical
FGFR-2 = FGFR-2 (Homo sapiens, UniProt P21802); assay: Inhibition of other RTKs (IC50); assay type: biochemical
Sequence of FGFR-2 (P21802 22-821, species assumed): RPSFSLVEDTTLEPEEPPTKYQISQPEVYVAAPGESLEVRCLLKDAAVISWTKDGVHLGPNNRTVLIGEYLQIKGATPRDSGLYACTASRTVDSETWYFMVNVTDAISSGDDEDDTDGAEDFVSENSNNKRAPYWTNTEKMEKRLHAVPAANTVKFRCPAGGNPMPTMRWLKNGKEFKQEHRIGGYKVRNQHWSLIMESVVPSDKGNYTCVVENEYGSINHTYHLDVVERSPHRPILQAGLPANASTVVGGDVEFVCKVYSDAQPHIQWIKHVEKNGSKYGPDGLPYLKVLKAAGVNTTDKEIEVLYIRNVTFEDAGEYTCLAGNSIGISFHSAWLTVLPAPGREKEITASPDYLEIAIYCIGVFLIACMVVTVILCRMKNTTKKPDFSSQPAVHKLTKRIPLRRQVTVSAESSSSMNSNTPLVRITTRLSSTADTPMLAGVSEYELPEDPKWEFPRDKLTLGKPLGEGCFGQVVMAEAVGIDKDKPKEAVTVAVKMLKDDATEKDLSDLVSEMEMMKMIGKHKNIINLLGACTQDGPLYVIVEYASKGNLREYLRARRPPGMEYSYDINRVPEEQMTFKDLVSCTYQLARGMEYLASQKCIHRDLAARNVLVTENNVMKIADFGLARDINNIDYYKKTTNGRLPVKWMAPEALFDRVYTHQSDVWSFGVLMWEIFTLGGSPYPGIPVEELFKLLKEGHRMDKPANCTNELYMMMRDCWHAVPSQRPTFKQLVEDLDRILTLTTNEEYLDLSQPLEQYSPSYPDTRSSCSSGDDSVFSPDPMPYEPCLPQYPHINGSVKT

TIE-2 = TIE-2 (Homo sapiens, UniProt Q02763); assay: Inhibition of other RTKs (IC50); assay type: biochemical
Sequence of TIE-2 (Q02763 23-1124, species assumed): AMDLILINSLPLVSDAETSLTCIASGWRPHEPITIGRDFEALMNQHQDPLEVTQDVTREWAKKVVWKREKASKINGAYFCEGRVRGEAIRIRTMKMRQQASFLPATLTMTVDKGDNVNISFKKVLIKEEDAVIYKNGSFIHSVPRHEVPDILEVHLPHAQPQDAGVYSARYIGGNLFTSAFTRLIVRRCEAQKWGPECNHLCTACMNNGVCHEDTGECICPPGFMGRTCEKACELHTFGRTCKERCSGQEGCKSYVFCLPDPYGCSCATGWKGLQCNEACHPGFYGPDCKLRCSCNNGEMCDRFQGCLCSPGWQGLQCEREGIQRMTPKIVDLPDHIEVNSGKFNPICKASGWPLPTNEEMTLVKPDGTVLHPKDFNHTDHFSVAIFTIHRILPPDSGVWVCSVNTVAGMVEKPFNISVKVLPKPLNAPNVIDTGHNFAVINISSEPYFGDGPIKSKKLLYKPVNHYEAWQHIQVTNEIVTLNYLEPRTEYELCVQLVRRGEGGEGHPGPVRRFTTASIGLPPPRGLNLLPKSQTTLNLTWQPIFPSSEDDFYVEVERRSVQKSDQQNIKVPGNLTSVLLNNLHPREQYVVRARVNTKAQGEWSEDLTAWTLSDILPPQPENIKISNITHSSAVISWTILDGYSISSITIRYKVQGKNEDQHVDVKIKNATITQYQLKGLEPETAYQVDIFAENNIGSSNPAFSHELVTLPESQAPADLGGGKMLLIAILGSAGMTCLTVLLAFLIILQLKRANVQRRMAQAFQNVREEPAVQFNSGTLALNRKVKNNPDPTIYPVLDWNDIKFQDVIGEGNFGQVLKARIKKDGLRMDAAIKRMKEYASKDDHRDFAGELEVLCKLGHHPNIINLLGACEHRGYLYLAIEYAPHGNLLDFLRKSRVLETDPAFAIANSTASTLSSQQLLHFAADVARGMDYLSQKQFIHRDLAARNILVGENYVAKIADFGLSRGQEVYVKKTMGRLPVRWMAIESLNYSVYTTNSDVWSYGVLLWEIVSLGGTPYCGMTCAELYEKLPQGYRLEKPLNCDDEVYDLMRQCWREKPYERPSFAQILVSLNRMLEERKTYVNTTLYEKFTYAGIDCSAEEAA

Src = Src (Homo sapiens, UniProt P12931); assay: Inhibition of other RTKs (IC50); assay type: biochemical
Sequence of Src (P12931 whole entry, species assumed): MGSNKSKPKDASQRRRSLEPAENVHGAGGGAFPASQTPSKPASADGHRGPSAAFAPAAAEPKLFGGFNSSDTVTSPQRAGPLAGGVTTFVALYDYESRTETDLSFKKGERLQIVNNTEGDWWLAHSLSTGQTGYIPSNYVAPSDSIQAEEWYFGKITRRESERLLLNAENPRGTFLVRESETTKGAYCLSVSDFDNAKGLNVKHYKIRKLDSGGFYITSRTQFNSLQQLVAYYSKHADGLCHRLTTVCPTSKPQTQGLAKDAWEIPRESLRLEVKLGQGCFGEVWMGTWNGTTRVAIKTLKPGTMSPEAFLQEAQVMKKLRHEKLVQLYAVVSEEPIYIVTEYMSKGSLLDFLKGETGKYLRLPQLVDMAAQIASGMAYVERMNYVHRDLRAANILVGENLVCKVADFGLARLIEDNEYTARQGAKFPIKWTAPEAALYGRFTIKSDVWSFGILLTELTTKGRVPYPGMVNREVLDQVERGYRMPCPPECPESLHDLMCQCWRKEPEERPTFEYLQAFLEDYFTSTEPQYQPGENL

EGFR = EGFR (Homo sapiens, UniProt P00533); assay: Inhibition of other RTKs (IC50); assay type: biochemical
erbB2 = erbB2 (Homo sapiens, UniProt P04626); assay: Inhibition of other RTKs (IC50); assay type: biochemical
Sequence of erbB2 (P04626 23-1255, species assumed): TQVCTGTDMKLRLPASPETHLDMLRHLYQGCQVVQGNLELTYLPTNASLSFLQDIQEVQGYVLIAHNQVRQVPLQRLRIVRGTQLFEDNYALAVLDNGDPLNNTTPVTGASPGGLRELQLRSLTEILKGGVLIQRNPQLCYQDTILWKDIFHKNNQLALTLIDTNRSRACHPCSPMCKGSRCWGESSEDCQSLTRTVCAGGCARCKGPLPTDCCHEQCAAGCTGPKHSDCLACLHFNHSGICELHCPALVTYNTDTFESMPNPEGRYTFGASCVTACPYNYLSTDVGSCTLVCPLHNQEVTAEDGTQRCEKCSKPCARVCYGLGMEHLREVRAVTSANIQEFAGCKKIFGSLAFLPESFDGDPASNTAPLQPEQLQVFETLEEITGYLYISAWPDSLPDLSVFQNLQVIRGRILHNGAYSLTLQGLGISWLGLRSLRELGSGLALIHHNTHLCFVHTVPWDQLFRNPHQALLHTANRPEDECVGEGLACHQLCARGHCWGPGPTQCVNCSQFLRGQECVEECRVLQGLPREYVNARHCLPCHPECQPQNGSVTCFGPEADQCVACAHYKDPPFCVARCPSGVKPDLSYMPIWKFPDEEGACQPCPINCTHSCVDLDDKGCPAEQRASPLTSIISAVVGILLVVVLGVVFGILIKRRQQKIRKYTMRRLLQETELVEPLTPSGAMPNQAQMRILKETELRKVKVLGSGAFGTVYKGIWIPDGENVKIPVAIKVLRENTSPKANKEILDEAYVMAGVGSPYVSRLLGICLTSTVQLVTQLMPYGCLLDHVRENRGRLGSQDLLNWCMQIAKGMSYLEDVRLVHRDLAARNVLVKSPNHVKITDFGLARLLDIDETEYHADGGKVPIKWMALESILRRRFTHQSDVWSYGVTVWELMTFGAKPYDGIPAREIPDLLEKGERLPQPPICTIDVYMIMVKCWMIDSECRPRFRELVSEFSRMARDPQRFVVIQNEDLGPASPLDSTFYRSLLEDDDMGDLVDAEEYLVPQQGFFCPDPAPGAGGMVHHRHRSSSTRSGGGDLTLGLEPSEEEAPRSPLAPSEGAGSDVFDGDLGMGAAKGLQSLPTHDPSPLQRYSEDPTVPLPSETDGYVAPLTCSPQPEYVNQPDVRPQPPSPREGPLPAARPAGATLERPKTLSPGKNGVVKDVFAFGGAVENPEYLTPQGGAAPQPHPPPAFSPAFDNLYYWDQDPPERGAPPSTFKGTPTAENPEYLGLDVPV

[1] = system: other kinases (VEGFR-2, FGFR-2, TIE-2, VEGFR, FGFR, EGFR, erbB2, src, Abl, Raf); assay: Selectivity relative to other kinases; assay type: biochemical; conditions: at clinically achievable concentrations, e.g. VEGFR
[2] = system: FLT3 ITD expressing Molm 14 cells; conditions: cited from earlier work; for Percent Apoptosis: Molm 14
[3] = system: primary AML patient blast samples harboring the FLT3 ITD mutation; conditions: samples from five patients, increasing concentrations, MTT; cited from earlier work
[4] = system: luciferase-expressing MV-411 cells; conditions: 15 mg/kg intraperitoneally, male NSG mice, twice daily 2 days then once daily 2 days; p<0.01; cited from earlier work
Ba/F3 D835Y = conditions: text: viability, read-out: IC50 pFLT3; cited from earlier work
Ba/F3 D835N = conditions: text: viability, read-out: IC50 pFLT3; cited from earlier work
[5] = system: primary AML patient blasts with FLT3 D835 mutation; conditions: MTT assay, 3 day exposure; cited from earlier work
Ba/F3 D835Y/ITD = conditions: text: viability, read-out: IC50 pFLT3; cited from earlier work
[6] = system: primary AML patient blasts with FLT3 ITD and FLT3 D835Y mutation; conditions: blasts incubated 3 days; patient relapsed after AC220; cited from earlier work
FLT3-ITD MV411 cells = conditions: crenolanib 0.1 uM for 5 minutes and 2 hours, […] radiolabeled cytarabine; cited from earlier work
MV-411 FLT3 ITD cells = conditions: combined with cytarabine in vitro; cited from earlier work
[7] = molecular target: wild type FLT3 receptor in HL60 (Homo sapiens, UniProt P36888); conditions: cited from earlier work
Sequence of wild type FLT3 receptor in HL60 (P36888 27-993): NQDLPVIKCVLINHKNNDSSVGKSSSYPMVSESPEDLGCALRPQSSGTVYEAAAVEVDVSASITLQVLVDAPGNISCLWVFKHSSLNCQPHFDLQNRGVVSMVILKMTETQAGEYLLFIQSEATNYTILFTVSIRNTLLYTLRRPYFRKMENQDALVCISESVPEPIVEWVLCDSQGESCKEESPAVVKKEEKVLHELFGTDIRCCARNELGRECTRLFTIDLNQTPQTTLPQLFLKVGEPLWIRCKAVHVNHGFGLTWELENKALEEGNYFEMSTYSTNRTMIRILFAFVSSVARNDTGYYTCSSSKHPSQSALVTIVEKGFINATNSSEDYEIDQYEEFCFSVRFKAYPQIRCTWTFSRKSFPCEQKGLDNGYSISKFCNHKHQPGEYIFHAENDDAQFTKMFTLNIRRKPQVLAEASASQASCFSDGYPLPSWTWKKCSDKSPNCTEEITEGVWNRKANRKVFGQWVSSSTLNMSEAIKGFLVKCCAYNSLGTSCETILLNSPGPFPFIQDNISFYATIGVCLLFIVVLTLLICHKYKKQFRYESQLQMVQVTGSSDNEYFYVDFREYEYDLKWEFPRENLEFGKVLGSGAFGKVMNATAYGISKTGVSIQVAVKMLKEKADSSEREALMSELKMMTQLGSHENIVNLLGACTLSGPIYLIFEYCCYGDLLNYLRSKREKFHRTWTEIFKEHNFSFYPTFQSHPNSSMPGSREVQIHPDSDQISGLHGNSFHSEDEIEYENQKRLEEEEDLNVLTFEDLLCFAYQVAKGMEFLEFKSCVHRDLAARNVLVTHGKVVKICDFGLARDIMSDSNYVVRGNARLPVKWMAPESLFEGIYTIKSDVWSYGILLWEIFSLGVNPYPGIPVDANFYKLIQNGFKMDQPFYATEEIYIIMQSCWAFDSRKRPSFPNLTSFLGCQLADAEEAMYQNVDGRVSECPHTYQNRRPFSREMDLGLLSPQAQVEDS

[8] = molecular target: ABL1(T315I) nonphosphorylated (Homo sapiens, UniProt P00519, T315I)
[9] = molecular target: ABL1(T315I) phosphorylated (Homo sapiens, UniProt P00519, T315I)
ABL1-nonphosphorylated = ABL1-nonphosphorylated (Homo sapiens, UniProt P00519)
ABL1-phosphorylated = ABL1-phosphorylated (Homo sapiens, UniProt P00519)

- IC50 (VEGFR-2): 273 nM
- IC50 (FGFR-2): > 5070 nM
- IC50 (TIE-2): > 5070 nM
- IC50 (Src): 4980 nM
- IC50 (EGFR): > 10000 nM
- IC50 (erbB2): > 10000 nM
- Kd [8]: 12000 nM
- Kd [9]: 760 nM
- Kd (ABL1-nonphosphorylated): 600 nM
- Kd (ABL1-phosphorylated): 88 nM
SMILES: CC1(COc2ccc3c(c2)ncn3-c2ccc3cccc(N4CCC(N)CC4)c3n2)COC1 [Crenolanib Besylate]
- inhibition of other known RTKs or serine/threonine kinases [1]: does not inhibit
- Percent Apoptosis ([2]; compound concentration 20 nM): 32.79%
- Percent Apoptosis ([2]; compound concentration 50 nM): 44.99%
- Percent Apoptosis ([2]; compound concentration 100 nM): 51.17%
- cytotoxic response of Molm 14 cells compared to sorafenib ([2]; concentrations 20 nM to 100 nM): significantly higher as compared to sorafenib
- cytotoxicity [3]: Cytotoxicity was observed in a dose dependent fashion
- MV-411-luciferase bone marrow infiltration compared to vehicle [4]: siginificantly suppressed
- IC50 (Ba/F3 D835Y): 6.38 nM
- IC50 (Ba/F3 D835N): 3.93 nM
- cytotoxic response compared with sorafenib [5]: greater cytotoxic response
- IC50 (Ba/F3 D835Y/ITD): 20.4 nM
- cytotoxic effect [6]: induced a cytotoxic effect
- cytarabine accumulation (FLT3-ITD MV411 cells): does not decrease cytarabine accumulation
- anti-leukemic effect of combination with cytarabine (MV-411 FLT3 ITD cells): Synergistic in vitro anti-leukemic effects
- phosphorylation inhibition of wild type FLT3 receptor [7]: increased phosphorylation inhibition in a dose dependent fashion

SMILES: CNC(=O)c1cc(Oc2ccc(NC(=O)Nc3ccc(Cl)c(C(F)(F)F)c3)cc2)ccn1 [Sorafenib, reference compound]
- Percent Apoptosis ([2]; compound concentration 20 nM): 13.07%
- Percent Apoptosis ([2]; compound concentration 50 nM): 30.21%
- Percent Apoptosis ([2]; compound concentration 100 nM): 44.09%
- cytotoxic effect [6]: ineffective
